Question: What does the source list for C[C@H]1[C@H](OC(=O)CCC(=O)O)O[C@@H]2O[C@@]3(C)CC[C@H]4[C@H](C)CC[C@@H]1[C@@]24OO3?
Answer: solubility (mole fraction) (in ethanol, 283.06 K): 0.0113; solubility (mole fraction) (in ethanol, 288.14 K): 0.0136; solubility (mole fraction) (in ethanol, 293.19 K): 0.0168; solubility (mole fraction) (in ethanol, 298.24 K): 0.0208; solubility (mole fraction) (in ethanol, 303.21 K): 0.0263; solubility (mole fraction) (in ethanol, 308.16 K): 0.0334; solubility (mole fraction) (in ethanol, 313.14 K): 0.0423; solubility (mole fraction) (in ethanol, 318.22 K): 0.0536; solubility (mole fraction) (in ethanol, 323.2 K): 0.0657; solubility (mole fraction) (in ethyl acetate, 283.17 K): 0.0199; solubility (mole fraction) (in ethyl acetate, 288.17 K): 0.0221; solubility (mole fraction) (in ethyl acetate, 293.16 K): 0.0246; solubility (mole fraction) (in ethyl acetate, 298.14 K): 0.0278; solubility (mole fraction) (in ethyl acetate, 303.17 K): 0.0309; solubility (mole fraction) (in ethyl acetate, 308.14 K): 0.0344; solubility (mole fraction) (in ethyl acetate, 313.17 K): 0.0382; solubility (mole fraction) (in ethyl acetate, 318.16 K): 0.0423; solubility (mole fraction) (in ethyl acetate, 323.19 K): 0.0473; solubility (mole fraction) (in isobutanol, 283.14 K): 0.00543; solubility (mole fraction) (in isobutanol, 288.07 K): 0.00698; solubility (mole fraction) (in isobutanol, 293.14 K): 0.00912; solubility (mole fraction) (in isobutanol, 298.1 K): 0.0118; solubility (mole fraction) (in isobutanol, 303.05 K): 0.0155; solubility (mole fraction) (in isobutanol, 308.08 K): 0.0196; solubility (mole fraction) (in isobutanol, 313.07 K): 0.0252; solubility (mole fraction) (in isobutanol, 318.05 K): 0.0325; solubility (mole fraction) (in isobutanol, 323.15 K): 0.0408; solubility (mole fraction) (in isopentanol, 283.16 K): 0.00573; solubility (mole fraction) (in isopentanol, 288.17 K): 0.00721; solubility (mole fraction) (in isopentanol, 293.14 K): 0.00915; solubility (mole fraction) (in isopentanol, 298.16 K): 0.0119; solubility (mole fraction) (in isopentanol, 303.16 K): 0.0151; solubility (mole fraction) (in isopentanol, 308.14 K): 0.0194; solubility (mole fraction) (in isopentanol, 313.17 K): 0.0244; solubility (mole fraction) (in isopentanol, 318.16 K): 0.031; solubility (mole fraction) (in isopentanol, 323.16 K): 0.0397; solubility (mole fraction) (in isopropanol, 283.06 K): 0.00541; solubility (mole fraction) (in isopropanol, 288.14 K): 0.00717; solubility (mole fraction) (in isopropanol, 293.19 K): 0.00965; solubility (mole fraction) (in isopropanol, 298.24 K): 0.012; solubility (mole fraction) (in isopropanol, 303.21 K): 0.016; solubility (mole fraction) (in isopropanol, 308.16 K): 0.0209; solubility (mole fraction) (in isopropanol, 313.14 K): 0.0276; solubility (mole fraction) (in isopropanol, 318.22 K): 0.0362; solubility (mole fraction) (in isopropanol, 323.2 K): 0.047; solubility (mole fraction) (in isopropyl acetate, 283.17 K): 0.0122; solubility (mole fraction) (in isopropyl acetate, 288.19 K): 0.0135; solubility (mole fraction) (in isopropyl acetate, 293.2 K): 0.0149; solubility (mole fraction) (in isopropyl acetate, 298.14 K): 0.0167; solubility (mole fraction) (in isopropyl acetate, 303.19 K): 0.0186; solubility (mole fraction) (in isopropyl acetate, 308.16 K): 0.0206; solubility (mole fraction) (in isopropyl acetate, 313.14 K): 0.0229; solubility (mole fraction) (in isopropyl acetate, 318.14 K): 0.0258; solubility (mole fraction) (in isopropyl acetate, 323.2 K): 0.029; solubility (mole fraction) (in methyl propionate, 283.19 K): 0.0207; solubility (mole fraction) (in methyl propionate, 288.22 K): 0.0232; solubility (mole fraction) (in methyl propionate, 293.23 K): 0.0258; solubility (mole fraction) (in methyl propionate, 298.17 K): 0.0286; solubility (mole fraction) (in methyl propionate, 303.23 K): 0.0318; solubility (mole fraction) (in methyl propionate, 308.14 K): 0.0355; solubility (mole fraction) (in methyl propionate, 313.24 K): 0.0395; solubility (mole fraction) (in methyl propionate, 318.16 K): 0.0442; solubility (mole fraction) (in methyl propionate, 323.18 K): 0.0497; solubility (mole fraction) (in n-butanol, 283.14 K): 0.00719; solubility (mole fraction) (in n-butanol, 288.07 K): 0.00886; solubility (mole fraction) (in n-butanol, 293.14 K): 0.0112; solubility (mole fraction) (in n-butanol, 298.1 K): 0.0143; solubility (mole fraction) (in n-butanol, 303.05 K): 0.0181; solubility (mole fraction) (in n-butanol, 308.08 K): 0.0233; solubility (mole fraction) (in n-butanol, 313.07 K): 0.0298; solubility (mole fraction) (in n-butanol, 318.05 K): 0.0379; solubility (mole fraction) (in n-butanol, 323.15 K): 0.0485; solubility (mole fraction) (in n-butyl acetate, 283.17 K): 0.012; solubility (mole fraction) (in n-butyl acetate, 288.19 K): 0.0135; solubility (mole fraction) (in n-butyl acetate, 293.2 K): 0.015; solubility (mole fraction) (in n-butyl acetate, 298.14 K): 0.0168; solubility (mole fraction) (in n-butyl acetate, 303.19 K): 0.0191; solubility (mole fraction) (in n-butyl acetate, 308.16 K): 0.0213; solubility (mole fraction) (in n-butyl acetate, 313.14 K): 0.0237; solubility (mole fraction) (in n-butyl acetate, 318.14 K): 0.0269; solubility (mole fraction) (in n-butyl acetate, 323.2 K): 0.0304; solubility (mole fraction) (in n-pentanol, 283.23 K): 0.0111; solubility (mole fraction) (in n-pentanol, 288.23 K): 0.0137; solubility (mole fraction) (in n-pentanol, 293.29 K): 0.017; solubility (mole fraction) (in n-pentanol, 298.5 K): 0.0216; solubility (mole fraction) (in n-pentanol, 303.24 K): 0.0266; solubility (mole fraction) (in n-pentanol, 308.02 K): 0.0328; solubility (mole fraction) (in n-pentanol, 313.08 K): 0.0408; solubility (mole fraction) (in n-pentanol, 318.05 K): 0.0491; solubility (mole fraction) (in n-pentanol, 323.1 K): 0.0594; solubility (mole fraction) (in n-pentyl acetate, 283.14 K): 0.00918; solubility (mole fraction) (in n-pentyl acetate, 288.24 K): 0.0104; solubility (mole fraction) (in n-pentyl acetate, 293.3 K): 0.0117; solubility (mole fraction) (in n-pentyl acetate, 298.28 K): 0.0133; solubility (mole fraction) (in n-pentyl acetate, 303.24 K): 0.0149; solubility (mole fraction) (in n-pentyl acetate, 308.22 K): 0.0168; solubility (mole fraction) (in n-pentyl acetate, 313.13 K): 0.0191; solubility (mole fraction) (in n-pentyl acetate, 318.18 K): 0.0216; solubility (mole fraction) (in n-pentyl acetate, 323.24 K): 0.0244; solubility (mole fraction) (in n-propanol, 283.14 K): 0.00832; solubility (mole fraction) (in n-propanol, 288.07 K): 0.0103; solubility (mole fraction) (in n-propanol, 293.14 K): 0.013; solubility (mole fraction) (in n-propanol, 298.08 K): 0.0163; solubility (mole fraction) (in n-propanol, 303.02 K): 0.0207; solubility (mole fraction) (in n-propanol, 308.05 K): 0.0264; solubility (mole fraction) (in n-propanol, 313.03 K): 0.034; solubility (mole fraction) (in n-propanol, 318.05 K): 0.0427; solubility (mole fraction) (in n-propanol, 323.05 K): 0.0542; solubility (mole fraction) (in n-propyl acetate, 283.16 K): 0.0159; solubility (mole fraction) (in n-propyl acetate, 288.24 K): 0.0176; solubility (mole fraction) (in n-propyl acetate, 293.16 K): 0.0194; solubility (mole fraction) (in n-propyl acetate, 298.18 K): 0.0216; solubility (mole fraction) (in n-propyl acetate, 303.16 K): 0.024; solubility (mole fraction) (in n-propyl acetate, 308.16 K): 0.0269; solubility (mole fraction) (in n-propyl acetate, 313.18 K): 0.0302; solubility (mole fraction) (in n-propyl acetate, 318.16 K): 0.0336; solubility (mole fraction) (in n-propyl acetate, 323.16 K): 0.0375

Source: BigSolDB 2.1
